Results taken from article PMC4003287, “Fast and economic immobilization methods described for non-commercial Pseudomonas lipases” (BMC Biotechnology, 2014).

Legend:
LipC = biological target: T1, LipC (Pseudomonas sp. 42A2, UniProt B3GVV9); assay: transesterification to FAMEs, TLC, immobilized crude enzyme; assay type: biochemical; details: methanol 15% w/w, water 10% w/w, room temperature, 24 h; triolein of 65% purity (with di- and monolein); FAMEs seen with EP100 and MP1000 preparations
T1 construct: secreted lipase, co-expressed with foldase gene lipH of 42A2 in pBBR1MCS, host P. aeruginosa PABST7.1 (PAO1 lipA lipH deletion); crude culture supernatant, adsorbed on EP100, MP1000 or Celite 545
T1 sequence (B3GVV9 24-309): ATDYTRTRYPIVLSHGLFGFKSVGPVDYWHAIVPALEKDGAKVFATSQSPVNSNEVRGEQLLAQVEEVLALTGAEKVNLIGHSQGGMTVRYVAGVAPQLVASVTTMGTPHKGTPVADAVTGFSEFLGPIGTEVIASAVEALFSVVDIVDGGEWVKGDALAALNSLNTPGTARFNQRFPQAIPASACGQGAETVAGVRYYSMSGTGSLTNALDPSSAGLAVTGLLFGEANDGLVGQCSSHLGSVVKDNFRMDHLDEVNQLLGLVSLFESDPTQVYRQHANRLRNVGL

LipA = biological target: T2, LipA (Pseudomonas sp. 42A2, UniProt B3GVV8); assay: as above; assay type: biochemical; details: methanol 15% w/w, water 10% w/w, 30°C, 24 h; triolein of 65% purity (with di- and monolein); FAMEs seen with EP100 and Celite 545 preparations
T2 construct: secreted lipase, co-expressed with foldase gene lipH of 42A2 in pBBR1MCS, host P. aeruginosa PABST7.1 (PAO1 lipA lipH deletion); crude culture supernatant, adsorbed on EP100, MP1000 or Celite 545
T2 sequence (B3GVV8 27-311): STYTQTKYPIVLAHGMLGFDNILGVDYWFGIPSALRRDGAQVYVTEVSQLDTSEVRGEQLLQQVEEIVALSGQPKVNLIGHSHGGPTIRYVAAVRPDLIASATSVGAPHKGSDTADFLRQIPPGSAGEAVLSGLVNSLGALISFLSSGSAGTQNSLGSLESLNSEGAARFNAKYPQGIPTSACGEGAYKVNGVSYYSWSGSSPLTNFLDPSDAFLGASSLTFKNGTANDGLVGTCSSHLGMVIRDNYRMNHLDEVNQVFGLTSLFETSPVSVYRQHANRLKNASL

CCCCCCCC/C=C\CCCCCCCC(=O)OCC(COC(=O)CCCCCCC/C=C\CCCCCCCC)OC(=O)CCCCCCC/C=C\CCCCCCCC [triolein]
transesterification to FAMEs, TLC, immobilized crude enzyme (LipC): LipA, LipC and LipCmut produced a visible FAMEs spot when analyzed by TLC
transesterification to FAMEs, TLC, immobilized crude enzyme (LipA): LipA, LipC and LipCmut produced a visible FAMEs spot when analyzed by TLC
